Measured values as given in US20250381179A1, “CHROMAN-BASED COMPOUNDS FOR TREATING CANCER” (priority 2024, published 2025).

Test: Phase 1 study: safety and tolerability (TEAEs, NCI CTCAE v5.0)
Experimental: The study employed an open-label, 3+3 design, with the option of adding backfill patients to each cohort cleared and deemed safe. […] Tumor responses were assessed every 2 cycles using RECIST v1.1 criteria. […] The study also involves an ongoing dose escalation study where participants receive 100 mg, 200 mg, 300 mg, 400 mg, and 600 mg once daily (QD) dose levels.
Safety was assessed through the analysis of the reported incidence of treatment-emergent AEs. Treatment-emergent AEs are those with an onset on or after the initiation of therapy and will be graded according to NCI CTCAE Version 5.0. Other safety endpoints, including laboratory results, vital signs, and ECG findings, were summarized for all patients in the Safety set.

[1] = Cohort 2/200 mg QD, patient 1, first listed event
[2] = Cohort 2/200 mg QD, patient 1, second listed event

O=C1CC[C@H](N2Cc3cc(N4CCN(CC5CCN(c6ccc([C@@H]7c8ccc(O)cc8OC[C@@H]7c7ccccc7)cc6F)CC5)CC4)ccc3C2=O)C(=O)N1 [compound (1-g), (S)-3-(5-(4-((1-(2-fluoro-4-((3S,4R)-7-hydroxy-3-phenylchroman-4-yl)phenyl)piperidin-4-yl)methyl)piperazin-1-yl)-1-oxoisoindolin-2-yl)piperidine-2,6-dione]
TEAE: Influenza Like Illness (600 mg QD (N = 4)): 0 n (%)
TEAE: Insomnia (600 mg QD (N = 4)): 0 n (%)
TEAE: Lower Respiratory Tract Congestion (600 mg QD (N = 4)): 0 n (%)
TEAE: Lymphocyte Count Decreased (600 mg QD (N = 4)): 0 n (%)
TEAE: Muscle Spasm (600 mg QD (N = 4)): 0 n (%)
TEAE: Muscular Weakness (600 mg QD (N = 4)): 0 n (%)
TEAE: Musculoskeletal Stiffness (600 mg QD (N = 4)): 0 n (%)
TEAE: Nail Disorder (600 mg QD (N = 4)): 0 n (%)
TEAE: Nasal Congestion (600 mg QD (N = 4)): 0 n (%)
TEAE: Nausea (600 mg QD (N = 4)): 0 n (%)
TEAE: Neutrophil Count Decreased (600 mg QD (N = 4)): 1 (25.0) n (%)
TEAE: Oedema Peripheral (600 mg QD (N = 4)): 0 n (%)
TEAE: Ophthalmic Migraine (600 mg QD (N = 4)): 0 n (%)
TEAE: Oral Pain (600 mg QD (N = 4)): 0 n (%)
TEAE: Pain In Extremity (600 mg QD (N = 4)): 0 n (%)
TEAE: Pharyngitis (600 mg QD (N = 4)): 0 n (%)
TEAE: Platelet Count Decreased (600 mg QD (N = 4)): 0 n (%)
TEAE: Pleural Effusion (600 mg QD (N = 4)): 0 n (%)
TEAE: Pneumonia (600 mg QD (N = 4)): 0 n (%)
TEAE: Productive Cough (600 mg QD (N = 4)): 0 n (%)
TEAE: Rash Maculo-Papular (600 mg QD (N = 4)): 0 n (%)
TEAE: Rhinitis Allergic (600 mg QD (N = 4)): 0 n (%)
TEAE: Rib Fracture (600 mg QD (N = 4)): 0 n (%)
TEAE: Seizure (600 mg QD (N = 4)): 0 n (%)
TEAE: Sepsis (600 mg QD (N = 4)): 0 n (%)
TEAE: Tremor (600 mg QD (N = 4)): 0 n (%)
TEAE: Upper Respiratory Tract Infection (600 mg QD (N = 4)): 0 n (%)
TEAE: Urinary Tract Infection (600 mg QD (N = 4)): 0 n (%)
TEAE: Vaginal Haemorrhage (600 mg QD (N = 4)): 0 n (%)
TEAE: Vomiting (600 mg QD (N = 4)): 0 n (%)
related TEAE: Alopecia (600 mg QD (N = 4)): 0 n (%)
related TEAE: Arthralgia (600 mg QD (N = 4)): 0 n (%)
related TEAE: Constipation (600 mg QD (N = 4)): 1 (25.0) n (%)
related TEAE: Diarrhea (600 mg QD (N = 4)): 0 n (%)
related TEAE: Dysgeusia (600 mg QD (N = 4)): 0 n (%)
related TEAE: Eructation (600 mg QD (N = 4)): 0 n (%)
related TEAE: Fatigue (600 mg QD (N = 4)): 0 n (%)
related TEAE: Flatulence (600 mg QD (N = 4)): 0 n (%)
related TEAE: Hot Flush (600 mg QD (N = 4)): 1 (25.0) n (%)
related TEAE: Hyperhidrosis (600 mg QD (N = 4)): 1 (25.0) n (%)
related TEAE: Nail Disorder (600 mg QD (N = 4)): 0 n (%)
related TEAE: Nausea (600 mg QD (N = 4)): 0 n (%)
related TEAE: Neutrophil Count Decreased (600 mg QD (N = 4)): 1 (25.0) n (%)
related TEAE: Platelet Count Decreased (600 mg QD (N = 4)): 0 n (%)
related TEAE: Tremor (600 mg QD (N = 4)): 0 n (%)
related TEAE: Vomiting (600 mg QD (N = 4)): 0 n (%)
correlation of TEAE incidence with dose level (100-600 mg QD): did not seem to correlate with increasing dose levels
dose limiting toxicities (100-600 mg QD, 37 patients): No dose limiting toxicities were observed
participants with TEAEs that led to dose interruption (Cohort 1 (100 mg QD)): 3 participants
CTCAE Grade of TEAE leading to dose interruption: Fall (Cohort 1/100 mg QD, patient 1): 2
Duration of TEAE leading to dose interruption: Fall (Cohort 1/100 mg QD, patient 1): 1 days
Related to Compound (1-g), TEAE leading to dose interruption: Fall (Cohort 1/100 mg QD, patient 1): No
CTCAE Grade of TEAE leading to dose interruption: Fatigue (Cohort 1/100 mg QD, patient 2): 3
Related to Compound (1-g), TEAE leading to dose interruption: Fatigue (Cohort 1/100 mg QD, patient 2): No
CTCAE Grade of TEAE leading to dose interruption: Confusional state (Cohort 1/100 mg QD, patient 3): 2
Duration of TEAE leading to dose interruption: Confusional state (Cohort 1/100 mg QD, patient 3): 2 days
Related to Compound (1-g), TEAE leading to dose interruption: Confusional state (Cohort 1/100 mg QD, patient 3): No
participants with TEAEs that led to dose interruption (Cohort 2 (200 mg QD)): 4 participants
CTCAE Grade of TEAE leading to dose interruption: Anaemia [1]: 2
Duration of TEAE leading to dose interruption: Anaemia [1]: 28 days
Related to Compound (1-g), TEAE leading to dose interruption: Anaemia [1]: No
CTCAE Grade of TEAE leading to dose interruption: Anaemia [2]: 3
Related to Compound (1-g), TEAE leading to dose interruption: Anaemia [2]: No
CTCAE Grade of TEAE leading to dose interruption: Fatigue (Cohort 2/200 mg QD, patient 2): 2
CTCAE Grade of TEAE leading to dose interruption: Muscular weakness (Cohort 2/200 mg QD, patient 2): 2
Related to Compound (1-g), TEAE leading to dose interruption: Fatigue (Cohort 2/200 mg QD, patient 2): No
Related to Compound (1-g), TEAE leading to dose interruption: Muscular weakness (Cohort 2/200 mg QD, patient 2): No
CTCAE Grade of TEAE leading to dose interruption: Seizure (Cohort 2/200 mg QD, patient 3): 3
CTCAE Grade of TEAE leading to dose interruption: Sepsis (Cohort 2/200 mg QD, patient 3): 3
Duration of TEAE leading to dose interruption: Seizure (Cohort 2/200 mg QD, patient 3): 20 days
Duration of TEAE leading to dose interruption: Sepsis (Cohort 2/200 mg QD, patient 3): 20 days
Related to Compound (1-g), TEAE leading to dose interruption: Seizure (Cohort 2/200 mg QD, patient 3): No
Related to Compound (1-g), TEAE leading to dose interruption: Sepsis (Cohort 2/200 mg QD, patient 3): No
CTCAE Grade of TEAE leading to dose interruption: Pain in extremity (Cohort 2/200 mg QD, patient 4, first listed event): 1
